Assay type in all cases: cell-based, rabbit
For test [1], the target named is T1, R282E-PepT1 (Oryctolagus cuniculus, UniProt P36836, R282E).
T1 construct: expressed in transfected cells; host or cells: Xenopus laevis oocytes injected with cRNA
T1 sequence (P36836 1-707 R282E): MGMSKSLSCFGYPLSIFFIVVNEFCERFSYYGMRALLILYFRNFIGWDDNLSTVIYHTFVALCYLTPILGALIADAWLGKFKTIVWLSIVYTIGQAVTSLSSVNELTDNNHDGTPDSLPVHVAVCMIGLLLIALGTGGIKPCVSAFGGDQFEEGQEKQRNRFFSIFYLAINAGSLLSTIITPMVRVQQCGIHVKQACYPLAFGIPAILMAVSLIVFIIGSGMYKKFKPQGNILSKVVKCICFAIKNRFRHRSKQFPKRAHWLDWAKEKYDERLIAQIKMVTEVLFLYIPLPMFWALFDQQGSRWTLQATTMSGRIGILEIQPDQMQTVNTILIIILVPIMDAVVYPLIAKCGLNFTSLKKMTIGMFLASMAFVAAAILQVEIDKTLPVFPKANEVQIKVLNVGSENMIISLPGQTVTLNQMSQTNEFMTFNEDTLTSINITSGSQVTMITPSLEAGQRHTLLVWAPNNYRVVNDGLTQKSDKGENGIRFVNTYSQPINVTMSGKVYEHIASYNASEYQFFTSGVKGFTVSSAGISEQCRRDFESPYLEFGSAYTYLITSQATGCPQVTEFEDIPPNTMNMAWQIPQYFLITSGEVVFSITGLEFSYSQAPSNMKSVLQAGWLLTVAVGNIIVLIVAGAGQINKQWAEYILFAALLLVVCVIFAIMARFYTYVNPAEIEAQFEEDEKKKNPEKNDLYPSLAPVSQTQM
The test is described as follows: Apparent charge:peptide stoichiometry (two-electrode voltage clamp current / radiolabelled uptake), R282E-PepT1. The following applies: R282E-PepT1, pHout 5.5, resting membrane potential. The procedure:
Measurements of membrane potential were made by impaling oocytes with a single glass microelectrode (Intra 767 amplifier, WPI, Stevenage, Hertfordshire, UK) perfused in uptake medium (as above) with or without 0.4 μM D-Phe-L-Gln (synthesised in house), 0.6 mM Gly-L-Gln (Sigma, Poole, UK) or 10 mM 4-aminobenzoic acid (4-AMBA, Sigma). Two-electrode voltage clamp (TEVC) was performed by placing oocytes in a 0.1 ml recording chamber and perfusing with uptake solution (pH 5.5 or 7.4) at a rate of 15 ml/min. Oocytes were impaled by two agarose-cushioned microelectrodes filled with 3 M KCl (0.5–2.0 MΩ) and voltage-clamped at −60 mV using a Geneclamp 500B amplifier and PCLAMP 8.1 software (Axon Instruments, CA, USA). The holding potential was stepped from −60 mV over the range of −150 to +50 mV in 10 mV steps, each pulse lasting 100 ms, and returning to −60 mV in between test voltage pulses. Typically traces were filtered at 1 kHz during recording and digitized at 0.5–5 kHz using the DigiData 1200 interface (Axon Instruments, CA, USA). All experiments were carried out at room temperature.
In order to calculate the apparent charge:substrate stoichiometry, the peptide induced current that was measured by two-electrode voltage clamp at the oocyte resting membrane potential was divided by the radiolabelled dipeptide uptake in oocytes from the same preparation. […]

Test [2] deals with T1, R282E-PepT1. In words: Inhibition of [3H]-D-Phe-L-Gln uptake into Xenopus oocytes expressing R282E-PepT1 (competition, Ki). As to conditions: pHout 5.5, 0.4 μM [3H]-D-Phe-L-Gln. As for the experimental part: (§1) Zero-trans uptake of [^3H]-D-Phe-L-Gln (17.4 Ci/mmole, custom synthesised, Cambridge Research Biochemicals, Stockton-on-Tees, UK) was performed as previously described ([Meredith, 2004]). Briefly, 5 oocytes were incubated in 100 μl of uptake medium (95 mM NaCl, 2 mM KCl, 1 mM CaCl2, 0.42 mM MgCl2, 10 mM Tris/Hepes pH 7.4 or Tris/Mes pH 5.5) with tracer (0.4 μM) [^3H]-D-Phe-L-Gln. After incubation, the oocytes were washed sequentially five times in 1 ml of ice-cold 120 mM NaCl solution, lysed individually with 100 μl 2% (w/v) SDS and liquid scintillation counted. As a control non-injected oocytes were also incubated in uptake medium with [^3H]-D-Phe-L-Gln as above.
(§2) The affinity of wild-type and mutant PepT1 were assessed by competition studies with 0.4 μM [^3H]-D-Phe-L-Gln and Gly-L-Gln present in the uptake medium in concentrations from 0 to 2 mM using the protocol above, and the Ki calculated using the method of [Deves and Boyd (1989)].

Test [3] concerns the target T2, R282D-PepT1 (Oryctolagus cuniculus, UniProt P36836, R282D).
T2 construct: expressed in transfected cells; host or cells: Xenopus laevis oocytes injected with cRNA
T2 sequence (P36836 1-707 R282D): T1 sequence (P36836 1-707 R282E) with E282D
In words: Inhibition of [3H]-D-Phe-L-Gln uptake into Xenopus oocytes expressing R282D-PepT1 (competition, Ki). As to conditions: pHout 5.5, 0.4 μM [3H]-D-Phe-L-Gln. The procedure: as §1, §2

Each structure is given as a SMILES string. Substitutions are numbered along the chain they refer to. Where a SMILES comes first, the peptide text is derived from it.

As for `NC(=O)CC[C@H](NC(=O)[C@H](N)Cc1ccccc1)C(=O)O` [D-Phe-L-Gln], in test [1], the “apparent stoichiometry (charge:peptide), normalised to wild-type 1:1” value is on record as 4.
Turning to `NCC(=O)N[C@@H](CCC(N)=O)C(=O)O` [Gly-L-Gln] (H-Gly-Gln-OH), the results for the Ki in test [2] and in test [3] were 350 ± 170 µM and 340 ± 270 µM, respectively.

By Ki is commonly meant the equilibrium dissociation constant of an inhibitor or competing ligand from its target.
